Results: PubChem BioAssay (NCI)
Several values for one entry are separate records, joined by “and”; a condition that tells them apart may be missing. Equal entries are not always repeated.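 Grown in 96-well plates, cells were treated for 48 hours with each compound at five concentrations. Insufficient inhibition: endpoint recorded as highest concentration tested. GI50: concentration for 50% inhibition of growth. At the TGI there is no net growth.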 Where a SMILES comes first, the peptide text is derived from it. [ ]: non-standard residue; d: D form. Phe(F5) = N[CH](Cc1c(F)c(F)c(F)c(F)c1F)C(=O)O

Experiments:
Assay in all cases: NCI tumour cell line growth inhibition, 48 h
LXFL 529 NSCLC = test system: LXFL 529 NSCLC
RXF-631 renal = test system: RXF-631 renal
SNB-78 CNS = test system: SNB-78 CNS
M19-MEL melanoma = test system: M19-MEL melanoma
DLD-1 colon = test system: DLD-1 colon
KM20L2 colon = test system: KM20L2 colon
DMS 273 small cell lung = test system: DMS 273 small cell lung
XF 498 CNS = test system: XF 498 CNS
MDA-N = test system: MDA-N
P388 leukemia = test system: P388 leukemia
P388/ADR leukemia = test system: P388/ADR leukemia
SN12K1 renal = test system: SN12K1 renal

Compound | TGI (LXFL 529 NSCLC) | TGI (RXF-631 renal) | TGI (SNB-78 CNS) | TGI (M19-MEL melanoma) | TGI (DLD-1 colon) | TGI (KM20L2 colon) | TGI (DMS 273 small cell lung) | TGI (XF 498 CNS) | TGI (MDA-N) | further results
CCOC(=O)C=C1CCN(C(=O)c2ccccc2)CC1 | > 100 µM | > 100 µM | > 100 µM | > 100 µM | > 100 µM | > 100 µM | > 100 µM | > 100 µM | – | –
O=C1c2ccccc2C(=O)N1CC1(C(=O)O)NCCS1(=O)=O (stereo not drawn) | – | – | – | – | – | – | – | – | > 100 µM | –
CS(=O)(=O)CC1=Nc2nnc(CCCCCCCc3nnc4n3C(=O)C(CS(C)(=O)=O)=N4)n2C1=O | > 100 µM | – | – | > 100 µM | – | > 100 µM | – | > 100 µM | – | –
O=C(NCCCCCCNC(=O)c1cccc2ccccc12)c1cccc2ccccc12 | > 100 µM | > 100 µM | 48.9 µM | – | > 100 µM | > 100 µM | 3.46 µM | 9.97 µM | – | –
C=C1C(=O)OC2CC3(C)C=CC(=O)C(=C)C3CC12 (stereo not drawn) | 1.93 µM | – | 14 µM | 3.51 µM | 1.51 µM | 6.88 µM | 2.64 µM | 3.35 µM | – | –
O=C(CCn1[nH]c(=O)c(Cl)c(Cl)c1=O)NOCCCc1ccccc1 | > 100 µM | > 100 µM | > 100 µM | > 100 µM | > 100 µM | > 100 µM | > 100 µM | > 100 µM | – | –
O=C(O)[C@@H]1C2CC([C@@H]1C(=O)O)[C@H](N1C(=O)CCC1=O)[C@@H]2Br (stereo partly drawn) | – | – | – | – | – | – | – | – | > 100 µM | –
COC(=O)[C@@H]1CSC(=S)N1C(=O)C[C@H]1CC=CC[C@H]1CC(=O)Sc1ccccc1 | 30.5 µM | – | 49.2 µM | 47.1 µM | 35.3 µM | 39 µM | 44.1 µM | 34.5 µM | – | –
Cn1c(=O)c2[nH]c(/N=N/N3CCN(CCO)CC3)nc2n(C)c1=O | – | – | – | – | – | – | – | – | > 100 µM | –
O=C(CC1Sc2ccccc2NC1=O)Nc1cc(Cl)ccc1Cl (stereo not drawn) | > 100 µM | > 100 µM | > 100 µM | > 100 µM | > 100 µM | > 100 µM | > 100 µM | – | – | –
CC1(Sc2ccccc2)CN(Cc2ccccc2)C1=O (stereo not drawn) | – | > 100 µM | > 100 µM | > 100 µM | > 100 µM | > 100 µM | > 100 µM | > 100 µM | – | –
COC(=O)CCC(=O)N1Cc2cc(C)ccc2N(C(=O)CCC(=O)OC)Cc2cc(C)ccc21 | – | – | > 100 µM | > 100 µM | > 100 µM | – | > 100 µM | > 100 µM | – | –
Nc1ncnc2c1ccn2C1OC2COP(=O)(O)OC2C1O (stereo not drawn) | – | – | – | – | – | – | – | – | 11.1 µM | –
CC(C)(C(=O)NN)c1ccccc1 | – | – | – | – | – | – | – | – | > 100 µM | –
CC12CCC(=O)C=C1CCC1C2CCC2(C)C(C(=O)Cn3cnc4c(=S)nc[nH]c43)CCC12 (stereo not drawn) | – | – | – | – | – | – | – | – | > 100 µM | –
C=C(C)[C@@H]1CC=C(CO)CC1 | 1320 µM | 1210 µM | 988 µM | 793 µM | 922 µM | 945 µM | – | 680 µM | > 10 µM | –
Cc1ccc2c(c1)C1(C)OC(CC(N)C1O)O2 (stereo not drawn) | – | – | – | > 100 µM | > 100 µM | – | > 100 µM | – | – | –

Compound | TGI (LXFL 529 NSCLC) | TGI (RXF-631 renal) | TGI (SNB-78 CNS) | TGI (M19-MEL melanoma) | TGI (DLD-1 colon) | TGI (KM20L2 colon) | TGI (DMS 273 small cell lung) | TGI (XF 498 CNS) | TGI (MDA-N) | further results
CN(C)c1ccc2c(NCCCCCCNc3ccnc4cc(N(C)C)ccc34)ccnc2c1 | – | > 100 µM | > 100 µM | 95.3 µM | > 100 µM | – | 21.3 µM | 11.9 µM | – | –
Nc1cc(=O)[nH]c(SC2=NC(N)CC(O)C2)n1 (stereo not drawn) | > 100 µM | – | > 100 µM | > 100 µM | > 100 µM | > 100 µM | > 100 µM | > 100 µM | – | –
COC(=O)C(CC(C)C)NC(=O)C(Cc1cnc[nH]1)NC(=O)CNC(=O)C(NC(=O)C(C)NC(=O)C(Cc1c[nH]c2ccccc12)NC(=O)C(CCC(=O)O)NC(=O)C(N)Cc1c(F)c(F)c(F)c(F)c1F)C(C)C (stereo not drawn) (H-[Phe(F5)]EWAVGHL-OMe; configuration not given here) | > 100 µM | – | > 100 µM | > 100 µM | > 100 µM | > 100 µM | > 100 µM | > 100 µM | > 12.5 µM | –
CCOP(=O)(OCC)C1CCCCOC1=O (stereo not drawn) | > 100 µM | > 100 µM | > 100 µM | > 100 µM | > 100 µM | > 100 µM | > 100 µM | > 100 µM | – | –
CC(=O)[O][Pb]([O]C(C)=O)([c]1ccccc1)[c]1ccccc1 | > 100 µM | – | 7.63 µM | 9.89 µM | > 100 µM | > 100 µM | > 100 µM | – | – | GI50 (LXFL 529 NSCLC): 5.57 µM; GI50 (SNB-78 CNS): 1.45 µM; GI50 (M19-MEL melanoma): 2.77 µM; GI50 (DLD-1 colon): 6.38 µM; GI50 (KM20L2 colon): 9.34 µM; GI50 (DMS 273 small cell lung): 2.88 µM
CC(=O)OC1c2ccccc2CC2(OC(C)=O)c3ccccc3C12 (stereo not drawn) | – | – | – | – | – | – | – | – | > 100 µM | –
C=C1C(=O)O[C@H]2C[C@@H](C)[C@@H]3CC(=O)OC[C@@]3(C)CC12 (stereo partly drawn) | – | – | – | > 100 µM | 74.3 µM | 52.2 µM | > 100 µM | – | – | –
CC1CC2C(=O)NC(=O)C2c2[nH]c3ccccc3c21 (stereo not drawn) | > 100 µM | – | > 100 µM | > 100 µM | > 100 µM | – | > 100 µM | > 100 µM | – | –
O=C(O)CS(=O)(=O)C(c1ccccc1)c1ccccc1 | – | – | – | – | – | – | – | – | > 100 µM | –
COc1ccccc1[N-]C(C1=C([O-])c2ccccc2C1=O)c1ccccc1.COc1ccccc1[N-]C(C1=C([O-])c2ccccc2C1=O)c1ccccc1.[Cu+2] (stereo not drawn) | > 100 µM | > 100 µM | > 100 µM | > 100 µM | > 100 µM | > 100 µM | > 100 µM | – | – | GI50 (LXFL 529 NSCLC): 22.4 µM; GI50 (RXF-631 renal): 12.7 µM; GI50 (SNB-78 CNS): 8.19 µM; GI50 (M19-MEL melanoma): 41.7 µM; GI50 (DLD-1 colon): 3.7 µM; GI50 (KM20L2 colon): 25.4 µM; GI50 (DMS 273 small cell lung): 4.59 µM
CC1Oc2cc3c(-c4c(O)cc(O)c5c(O)c6c(cc45)OC(C)C(C)C6=O)c(O)cc(O)c3c(O)c2C(=O)C1C (stereo not drawn) | – | – | – | – | – | – | – | – | 1.58 µM | –
CCc1ccc(NCc2cc(OC)c(OC)c(OC)c2)cc1 | 14 µM and 65.4 µM | – | – | 35.3 µM and > 87.8 µM | > 100 µM | 1.32 µM and 1.64 µM | 13 µM | 21.7 µM and 53.9 µM | 1.17 µM and 0.772 µM | GI50 (LXFL 529 NSCLC): 0.523 µM and 1.57 µM; GI50 (DMS 273 small cell lung): 0.19 µM and 0.628 µM; GI50 (MDA-N): < 0.01 µM
CN1CCc2c1nc(-c1ccccc1)c1c2N(C)CC1 | > 100 µM | – | > 100 µM | > 100 µM | > 100 µM | > 100 µM | > 100 µM | – | – | –
CCCC(O)[C@@H](O)c1ccc2c(c1O)C(=O)c1c(OC)cccc1C2=O (stereo partly drawn) | – | 75.4 µM | 91.1 µM | 61.5 µM | > 100 µM | > 100 µM | > 100 µM | 36.3 µM | – | –
CC[C@](C)(O)C(=O)O[C@H]1C(=O)O[C@@H]2C[C@H]3C(C)=CC(=O)[C@@H](O)[C@]3(C)[C@H]3[C@@]4(O)OC[C@]32[C@@H]1[C@@H](C)[C@H]4O | 0.0317 µM | 2.77 µM | 0.289 µM and 0.28 µM | 0.0957 µM and 0.069 µM | – | 4.77 µM and 16.9 µM | 0.0425 µM and 0.205 µM | – | 2.29 µM | GI50 (SNB-78 CNS): 0.0556 µM; GI50 (M19-MEL melanoma): 0.0233 µM; GI50 (KM20L2 colon): 0.267 µM and 0.136 µM; TGI (P388 leukemia): 0.198 µM; GI50 (DMS 273 small cell lung): 0.0127 µM; TGI (P388/ADR leukemia): 9.5 µM; TGI (SN12K1 renal): 0.0598 µM
O=C(O)CSSCC(=O)O | – | – | – | – | – | – | – | – | > 100 µM | –
